Earlier results as cited in patent publication US12150952B2, “Formulation for the use in the simultaneous treatment of coccidial infections and iron deficiencies” (Elanco Animal Health GmbH, priority 2018, dated 2024).
Like-named read-outs stand apart in the source and are kept apart here.

Columns and labels:
[1] = value to be understood as stated ±1
Isospora suis = conditions: coccidiosis

Row | Compound | HLB [1] | HLB ([1]; listed as Sodium Docusate) | preventing the disease in experimentally infected piglets (Isospora suis)
1 | CCCCC(CC)COC(=O)CC(C(=O)OCC(CC)CCCC)S(=O)(=O)[O-].[Na+] (stereo not drawn) [Sodium docusate] | about 10 | 10 | –
2 | CCCc1ncc(C[n+]2ccccc2C)c(N)n1 [amprolium] | – | – | not been successful in preventing the disease
3 | O=C1OCCN1/N=C/c1ccc([N+](=O)[O-])o1 [furazolidon] | – | – | not been successful in preventing the disease
4 | CC[C@@]1([C@@H]2O[C@@H]([C@H]3O[C@@](O)(CO)[C@H](C)C[C@@H]3C)C[C@@H]2C)CC[C@H]([C@]2(C)CC[C@]3(C[C@H](O)[C@@H](C)[C@@H]([C@@H](C)[C@@H](OC)[C@H](C)C(=O)O)O3)O2)O1 [monensin] | – | – | not been successful in preventing the disease
5 | Sorbitan Monooleate | about 4.6 | – | –
